Common to all, as to assay: growth of human tumour cells (NCI), 48 h
Assay [1] relates to NCI-H522.
Assay [2] deals with SF-295.
Assay [3] deals with HCT-15.
The subject of assay [4] is U-251.
For assay [5], the system named is RPMI-8226.
Assay [6] relates to SNB-75.
For assay [7], the system named is UACC-62.
Assay [8] deals with LXFL 529.
Assay [9] deals with SW-620.
The test system of assay [10] is 786-0.
Assay [11] has as its system CCRF-CEM.
In assay [12] the test system is UACC-257.
Assay [13] concerns SN12C.
Assay [14] relates to SF-268.
The test system of assay [15] is NCI-H23.
Assay [16] deals with HL-60.
The test system of assay [17] is OVCAR-8.
In assay [18] the test system is A498.

This note sets out measurements from ChEMBL document CHEMBL1201862, “PubChem BioAssay data set” (2004).

Structures are written as SMILES.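 Results reflect a 48-hour exposure of cells in 96-well plates to compound at five concentrations. GI50 marks 50% less growth.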 Active and inactive are the calls of the source. Cut-off read from the data, not from the text of the source: active = GI50 up to about 1.1 µM and inactive = higher.

As to `COC(=O)C(=O)C(C#N)c1ccc(Cl)c(Cl)c1` (stereo unspecified), the GI50 in assay [1] was > 100 µM (inactive); in assay [2], > 100 µM (inactive); in [3], above 100 µM; in assay [4] it was > 100 µM (inactive); in assay [5], > 100 µM (inactive); in [6], 80 µM (inactive). The GI50 in assay [7], in assay [8], in assay [9], in [10], in assay [11] and in [12] was > 100 µM (inactive) each time. The GI50 in assay [13], in assay [14], in assay [15] and in assay [16] was > 100 µM (inactive) in each case.
`c1ccc(C2N=NN(c3ccccc3)C2N2CCCCC2)cc1` (stereo unspecified): the GI50 in assay [1] was > 100 µM (inactive); in assay [2], 33.8 µM (inactive); in [3], above 100 µM; in [17], > 10 µM (inactive); in assay [4], 56 µM (inactive); in [5] it was > 100 µM (inactive). Further, the GI50 is 20 µM (inactive) in [6]; 67 µM (inactive) in assay [7]; > 100 µM (inactive) in assay [8]; > 100 µM (inactive) in [9]; 64.7 µM (inactive) in [10]; > 100 µM (inactive) in [11]. Also, the GI50 in assay [12] is > 100 µM (inactive); in assay [13], > 100 µM (inactive); in assay [14], 46.5 µM (inactive); in [15] it was > 100 µM (inactive); in assay [16], > 100 µM (inactive).
Consider `Cc1ccc(NC(=O)c2nc(S)nc(N)c2-c2ccccc2C)cc1C`, for which the GI50 in [1] was > 100 µM (inactive); in assay [3], above 100 µM; in assay [17], > 100 µM (inactive); in assay [4], > 100 µM (inactive); in [5], > 100 µM (inactive); in assay [6], > 100 µM (inactive). Moreover, the GI50 in assay [7], in assay [8], in [9], in assay [18], in assay [10] and in assay [11] was > 100 µM (inactive) throughout. Besides, the GI50 in assay [12], in assay [13], in assay [14] and in assay [15] was > 100 µM (inactive) each time.
Take `Nc1nc(N)c(N=O)c(Nc2ccc(I)cc2)n1`: the GI50 in assay [1] was 12.1 µM (inactive); in [2], 28.6 µM (inactive); in assay [3], 12.2 µM; in assay [17] it was 29.4 µM (inactive); in assay [4], 25.3 µM (inactive); in assay [5], 20.9 µM (inactive). The GI50 was 7.78 µM (inactive) in assay [7]; 9.93 µM (inactive) in assay [8]; 30 µM (inactive) in assay [9]; 25.5 µM (inactive) in [10]; 13.8 µM (inactive) in [11]; 19.5 µM (inactive) in assay [12]. Besides, the GI50 in [13] is 10.6 µM (inactive); in [14], 13.9 µM (inactive); in [15], 18.2 µM (inactive); in [16], 6.53 µM (inactive).
Turning to `CC1Nc2ccccc2NC1C=C(C#N)C#N` (stereo unspecified), the GI50 in assay [1] was 10.9 µM (inactive); in assay [2], 15.5 µM (inactive); in [3] it was 17.4 µM; in assay [17] it was 7.76 µM (inactive); in [4], 16.1 µM (inactive); in assay [5] it was 4.58 µM (inactive). Moreover, the GI50 was 14.6 µM (inactive) in assay [6]; 16.1 µM (inactive) in [7]; 13 µM (inactive) in assay [8]; 12.2 µM (inactive) in assay [9]; 16 µM (inactive) in [10]; 2.72 µM (inactive) in assay [11]. Besides, the GI50 in assay [12] was > 10 µM (inactive); in assay [13], 15.6 µM (inactive); in [14], 14.7 µM (inactive); in assay [15], 17.2 µM (inactive); in assay [16], 1.85 µM (inactive).
Turning to `Cc1ccc(NC(=O)CC2SC(Nc3cccc(Cl)c3C)=NC2=O)cc1` (stereo unspecified), the GI50 was 39.6 µM (inactive) in assay [2]; 76.9 µM in assay [3]; 40.6 µM (inactive) in [17]; 50.4 µM (inactive) in assay [4]; 28.2 µM (inactive) in assay [5]; > 100 µM (inactive) in assay [6]. The GI50 in assay [7] is 42 µM (inactive); in [8], 32.4 µM (inactive); in assay [9], 68.5 µM (inactive); in [18], 33 µM (inactive); in [10] it was > 100 µM (inactive); in assay [11], 32.1 µM (inactive). In addition, the GI50 in [12] is 48 µM (inactive); in assay [13], 50.9 µM (inactive); in assay [14], 37 µM (inactive); in assay [15], 28.6 µM (inactive).
As for `Cc1nc(=O)n2c(C)n[nH]c2c1C(=O)Nc1cc(Cl)cc(Cl)c1`, the GI50 in assay [1] is 6.01 µM (inactive); in [2] it was 31.4 µM (inactive); in assay [3], 19.3 µM; in assay [17], 45.5 µM (inactive); in [4], 21.1 µM (inactive); in assay [5] it was 9.91 µM (inactive). Further, the GI50 in [6] is 37.2 µM (inactive); in assay [7] it was 16.2 µM (inactive); in assay [8] it was 29.8 µM (inactive); in assay [9], 41.5 µM (inactive); in assay [10], 28.4 µM (inactive); in [11], 20.2 µM (inactive). Also, the GI50 in [13] was 15.9 µM (inactive); in assay [14], 33.3 µM (inactive); in assay [15] it was 24.6 µM (inactive); in assay [16], 20.1 µM (inactive).
Regarding `CC1CCC23COC(=O)C2C(O)CCC3C1(C)CC(O)c1ccoc1` (stereo unspecified), the GI50 is > 100 µM (inactive) in [1]; > 100 µM (inactive) in assay [2]; above 100 µM in assay [3]; > 100 µM (inactive) in [17]; > 100 µM (inactive) in assay [4]; 41.3 µM (inactive) in [6]. The GI50 in assay [7], in assay [8], in assay [9], in [18], in [10] and in assay [11] was > 100 µM (inactive) throughout. Also, the GI50 in [12], in [13], in assay [14] and in assay [15] was > 100 µM (inactive) each time.
As for `COc1cccc2c1C(=O)c1c(O)c3c(c(O)c1C2=O)C[C@@](O)(C(=O)CO)CC3OC1CC(N(C)CCOCC(OC(C)=O)OC(C)=O)C(O)C(C)O1` (stereo partly specified), the GI50 in assay [1], in [2], in assay [17], in assay [4], in [5] and in assay [6] was > 0.01 µM (active) throughout. Also, the GI50 in [7], in assay [8], in [9], in assay [10], in assay [11] and in assay [12] was > 0.01 µM (active) in each case. In addition, the GI50 in assay [13], in [14], in [15] and in [16] was > 0.01 µM (active) each time.
